According to the CheMixHub viscosity set:

Assay: xn = mol fraction of the nth substance listed

COC(C)=O + CN1CCCC1=O
viscosity [mPa·s], 101 kPa
Settings | x2 = 0.0845 | x2 = 0.172 | x2 = 0.2626 | x2 = 0.3565 | x2 = 0.4539 | x2 = 0.5549 | x2 = 0.6598 | x2 = 0.7688 | x2 = 0.8821
303.15 K | 0.52 | 0.671 | 0.818 | 0.958 | 1.096 | 1.22 | 1.326 | 1.424 | 1.502
308.15 K | 0.488 | 0.619 | 0.749 | 0.873 | 0.991 | 1.102 | 1.195 | 1.284 | 1.358
313.15 K | 0.445 | 0.571 | 0.693 | 0.811 | 0.923 | 1.028 | 1.118 | 1.202 | 1.271
318.15 K | 0.412 | 0.526 | 0.638 | 0.743 | 0.846 | 0.939 | 1.022 | 1.098 | 1.163

CC(=O)C(=O)O + CC(C)[C@@H]1CC[C@@H](C)C[C@H]1O
100 kPa, x2 = 0.67
Settings | viscosity [mPa·s]
293.15 K | 44.64
298.15 K | 29.95
303.15 K | 21.24
308.15 K | 15.67
313.15 K | 11.88
318.15 K | 9.36
323.15 K | 7.511

O=C(O)c1ccccc1 + O=[N+]([O-])c1ccccc1
viscosity [mPa·s], 101 kPa
Settings | x1 = 0.09745 | x1 = 0.108 | x1 = 0.139 | x1 = 0.1489 | x1 = 0.175
308.15 K | 1.746 | – | – | – | –
313.15 K | 1.626 | 1.626 | 1.675 | 1.746 | 1.746
318.15 K | 1.503 | – | – | 1.611 | –
323.15 K | 1.397 | – | – | 1.492 | –

c1ccc2ncccc2c1 + OCC(F)(F)F
viscosity [mPa·s], 101.33 kPa
Settings | 298.15 K | 303.15 K | 308.15 K | 313.15 K | 318.15 K | 323.15 K
x1 = 0.16 | 2.34 | 2.05 | 1.84 | 1.62 | 1.46 | 1.32
x1 = 0.34 | 2.91 | 2.57 | 2.27 | 2.04 | 1.83 | 1.65
x1 = 0.54 | 3.14 | 2.79 | 2.46 | 2.21 | 2 | 1.82
x1 = 0.76 | 3.17 | 2.8 | 2.49 | 2.25 | 2.05 | 1.87

CCC(C)=O + c1ccccc1
Settings | viscosity [mPa·s]
293.15 K, 101 kPa, x1 = 0.2 | 0.569
293.15 K, 101 kPa, x1 = 0.4 | 0.511
293.15 K, 101 kPa, x1 = 0.5 | 0.487
293.15 K, 101 kPa, x1 = 0.6 | 0.471
293.15 K, 101 kPa, x1 = 0.8 | 0.435
298 K, 101.33 kPa, x2 = 0.1513 | 0.3919
298 K, 101.33 kPa, x2 = 0.2663 | 0.4141
298 K, 101.33 kPa, x2 = 0.2941 | 0.4175
298 K, 101.33 kPa, x2 = 0.4321 | 0.4408
298 K, 101.33 kPa, x2 = 0.5597 | 0.4674
298 K, 101.33 kPa, x2 = 0.6057 | 0.4775
298 K, 101.33 kPa, x2 = 0.7302 | 0.5097
298 K, 101.33 kPa, x2 = 0.8777 | 0.5571
298.15 K, 101 kPa, x2 = 0.106 | 0.4072
298.15 K, 101 kPa, x2 = 0.197 | 0.4173
298.15 K, 101 kPa, x2 = 0.3 | 0.4324
298.15 K, 101 kPa, x2 = 0.4 | 0.4487
298.15 K, 101 kPa, x2 = 0.5 | 0.4672
298.15 K, 101 kPa, x2 = 0.615 | 0.4908
298.15 K, 101 kPa, x2 = 0.694 | 0.508
298.15 K, 101 kPa, x2 = 0.793 | 0.5355
298.15 K, 101 kPa, x2 = 0.895 | 0.5683
299.15 K, 101.3 kPa, x2 = 0.098 | 0.41
299.15 K, 101.3 kPa, x2 = 0.198 | 0.425
299.15 K, 101.3 kPa, x2 = 0.298 | 0.443
299.15 K, 101.3 kPa, x2 = 0.398 | 0.455
299.15 K, 101.3 kPa, x2 = 0.498 | 0.474
299.15 K, 101.3 kPa, x2 = 0.599 | 0.497
299.15 K, 101.3 kPa, x2 = 0.699 | 0.519
299.15 K, 101.3 kPa, x2 = 0.799 | 0.546
299.15 K, 101.3 kPa, x2 = 0.899 | 0.584
303.15 K, 101 kPa, x1 = 0.1023 | 0.538
303.15 K, 101 kPa, x1 = 0.2 | 0.498
303.15 K, 101 kPa, x1 = 0.2042 | 0.509
303.15 K, 101 kPa, x1 = 0.395 | 0.467
303.15 K, 101 kPa, x1 = 0.4 | 0.454
303.15 K, 101 kPa, x1 = 0.5 | 0.434
303.15 K, 101 kPa, x1 = 0.5129 | 0.444
303.15 K, 101 kPa, x1 = 0.6 | 0.42
303.15 K, 101 kPa, x1 = 0.6822 | 0.42
303.15 K, 101 kPa, x1 = 0.8 | 0.391
303.15 K, 101 kPa, x1 = 0.853 | 0.396
307.35 K, 101.33 kPa, x1 = 0.0925 | 0.501
307.35 K, 101.33 kPa, x1 = 0.2405 | 0.462
307.35 K, 101.33 kPa, x1 = 0.3178 | 0.446
307.35 K, 101.33 kPa, x1 = 0.4477 | 0.424
307.35 K, 101.33 kPa, x1 = 0.5084 | 0.41
307.35 K, 101.33 kPa, x1 = 0.616 | 0.394
307.35 K, 101.33 kPa, x1 = 0.7356 | 0.378
308.15 K, 101 kPa, x1 = 0.2 | 0.471
308.15 K, 101 kPa, x1 = 0.4 | 0.431
308.15 K, 101 kPa, x1 = 0.5 | 0.414
308.15 K, 101 kPa, x1 = 0.6 | 0.401
308.15 K, 101 kPa, x1 = 0.8 | 0.373
318.15 K, 101 kPa, x1 = 0.2 | 0.421
318.15 K, 101 kPa, x1 = 0.4 | 0.388
318.15 K, 101 kPa, x1 = 0.5 | 0.373
318.15 K, 101 kPa, x1 = 0.6 | 0.362
318.15 K, 101 kPa, x1 = 0.8 | 0.339
